This passage reports IC50 and Emax results from patent publication US20180338980A1, “AROMATIC SULFONAMIDE DERIVATIVES” (BAYER PHARMA AKTIENGESELLSCHAFT, priority 2015, published 2018).

This experiment addresses T1, P2X4 (Homo sapiens, UniProt Q99571).
T1 sequence (Q99571 1-388): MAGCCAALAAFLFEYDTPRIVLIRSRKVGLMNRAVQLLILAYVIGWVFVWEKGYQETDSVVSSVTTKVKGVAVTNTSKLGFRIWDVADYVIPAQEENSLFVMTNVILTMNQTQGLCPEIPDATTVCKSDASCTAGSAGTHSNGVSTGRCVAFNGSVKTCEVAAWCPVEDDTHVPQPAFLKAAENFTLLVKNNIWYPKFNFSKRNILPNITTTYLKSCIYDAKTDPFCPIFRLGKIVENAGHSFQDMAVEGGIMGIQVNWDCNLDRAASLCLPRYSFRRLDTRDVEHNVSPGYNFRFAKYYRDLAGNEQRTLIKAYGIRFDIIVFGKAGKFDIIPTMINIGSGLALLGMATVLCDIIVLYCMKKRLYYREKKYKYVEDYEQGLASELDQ
Kind of experiment: Assay B: human P2X4 receptor cell line, mitochondrial photina luminescence (agonist Bz-ATP at EC50). Set-up: host or cells: HEK 293 (recombinant, constitutively expressing; with mitochondrial photina in Assay B). As to conditions: HEK human P2X4 cell line, photina luminescence, agonist Bz-ATP at EC50, average; for Emax: read-out: human P2X4 Assay B avg Efficacy. The class given is cell-based. How it is done:
The identification of agonists and antagonists of the P2X4 receptor from humans and […] also the quantification of the activity of the compounds of the invention was performed by use of recombinant cell lines. […] The test cell lines constitutively express the mouse or human P2X4 receptors. Stimulation of the receptors with an agonist leads to a conformational change of P2X4 and influx of extracellular calcium ions through the ion channel. The cytoplasmatic calcium transient is detected via the calcium sensitive dye Fluo8 for the mouse P2×4 cell line or in case of the human P2×4 cell line a stably expressed calcium-sensitive photoprotein, mitochondrial photina, which, after reconstitution with the cofactor coelenterazine, emits light in dependence of calcium binding [Bovolenta S, Foti M, Lohmer S, Corazza S., J Biomol Screen. […] The strength of Fluo8 fluorescence signal or photina luminescence signal corresponds to the level of receptor activation. An inhibitor would decrease the signal depending on its potency and concentration.
The resulting light signal is measured immediately in the luminometer.

For `NS(=O)(=O)c1cc(NC(=O)Cc2ccccc2)ccc1Oc1ccccc1OC(F)(F)F` [Example 074, 2-Phenyl-N-{3-sulfamoyl-4-[2-(trifluoromethoxy)phenoxy]phenyl}acetamide], the IC50 came to 609 nM and the Emax was 52%.
Taken in the same sequence, the figures for `NS(=O)(=O)c1cc(NC(=O)Cc2c(Cl)cc(C(F)(F)F)c(F)c2F)ccc1Oc1cccc(Cl)c1` [Example 115, 2-[6-Chloro-2,3-difluoro-4-(trifluoromethyl)phenyl]-N-[4-(3-chlorophenoxy)-3-sulfamoylphenyl]acetamide] were 1420 nM and 54%.
Consider `CC(C(=O)Nc1ccc(Oc2cccc(Cl)c2)c(S(N)(=O)=O)c1)c1ccccc1` (stereo not drawn) [Example 184, N-[4-(3-Chlorophenoxy)-3-sulfamoylphenyl]-2-phenylpropanamide], for which the Emax was 53%.
As for `NS(=O)(=O)c1cc(NC(=O)Cc2ccccc2Cl)ccc1OCc1ccncn1` [Example 153, 2-(2-Chlorophenyl)-N-[4-(pyrimidin-4-ylmethoxy)-3-sulfamoylphenyl]acetamide], the IC50 amounted to 327 nM and the Emax came to 93%.
Turning to `Cn1nccc1Oc1ccc(NC(=O)Cc2ccccc2Cl)cc1S(N)(=O)=O` [Example 237, 2-(2-Chlorophenyl)-N-{4-[(1-methyl-1H-pyrazol-5-yl)oxy]-3-sulfamoylphenyl}acetamide], the IC50 stood at 235 nM and the Emax worked out at 59%.
As for `NS(=O)(=O)c1cc(NC(=O)Cc2ccccc2Cl)ccc1Oc1ccc(Br)cc1` [Example 060, N-[4-(4-Bromophenoxy)-3-sulfamoylphenyl]-2-(2-chlorophenyl)acetamide], the Emax was 34%.
For the compound `NS(=O)(=O)c1cc(NC(=O)Cc2ccccc2Cl)ccc1OC1COC1` [Example 216, 2-(2-Chlorophenyl)-N-[4-(oxetan-3-yloxy)-3-sulfamoylphenyl]acetamide], the IC50 was 3350 nM and the Emax was determined as 45%.
The matching figures for `CCOc1ccccc1CC(=O)Nc1ccc(Oc2cccc(Cl)c2)c(S(N)(=O)=O)c1` [Example 088, N-[4-(3-Chlorophenoxy)-3-sulfamoylphenyl]-2-(2-ethoxyphenyl)acetamide]: 190 nM and 75%.
In the case of `N#Cc1cc(Cl)c(CC(=O)Nc2ccc(Oc3ccc(Cl)cc3)c(S(N)(=O)=O)c2)cc1Cl` [Example 243, N-[4-(4-Chlorophenoxy)-3-sulfamoylphenyl]-2-(2,5-dichloro-4-cyanophenyl)acetamide], the IC50 came to 2720 nM and the Emax is 70%.
Taken in the same sequence, the figures for `NS(=O)(=O)c1cc(NC(=O)Cc2c(Cl)cccc2C(F)(F)F)ccc1Oc1cccc(Cl)c1` [Example 108, N-[4-(3-Chlorophenoxy)-3-sulfamoylphenyl]-2-[2-chloro-6-(trifluoromethyl)phenyl]acetamide] were 175 nM and 60%.
Taken in the same sequence, the figures for `N#Cc1ccc(Oc2ccc(NC(=O)Cc3ccccc3Cl)cc2S(N)(=O)=O)cc1` [Example 030, 2-(2-Chlorophenyl)-N-[(4-cyanophenoxy)-3-sulfamoylphenyl]acetamide] were 5080 nM and 99%.
The matching figures for `N#CC1(COc2ccc(NC(=O)Cc3ccccc3Cl)cc2S(N)(=O)=O)CCOCC1` [Example 055, 2-(2-Chlorophenyl)-N-{4-[(4-cyanotetrahydro-2H-pyran-4-yl)methoxy]-3-sulfamoylphenyl}acetamide]: 1160 nM and 71%.
Take `CC(C)c1ncc(Oc2ccc(NC(=O)Cc3ccccc3Cl)cc2S(N)(=O)=O)cn1` [Example 057, 2-(2-Chlorophenyl)-N-{4-[(2-isopropylpyrimidin-5-yl)oxy]-3-sulfamoylphenyl}acetamide]: the IC50 was 1590 nM and the Emax came to 65%.
Taken in the same sequence, the figures for `NS(=O)(=O)c1cc(NC(=O)Cc2ccccc2Cl)ccc1Oc1cncnc1` [Example 019, 2-(2-Chlorophenyl)-N-[4-(pyrimidin-5-yloxy)-3-sulfamoylphenyl]acetamide] were 1420 nM and 80%.
Taken in the same sequence, the figures for `Cc1ccncc1CC(=O)Nc1ccc(Oc2cccc(Cl)c2)c(S(N)(=O)=O)c1` [Example 092, N-[4-(3-Chlorophenoxy)-3-sulfamoylphenyl]-2-(4-methylpyridin-3-yl)acetamide] were 3440 nM and 57%.
Taken in the same sequence, the figures for `COCCOc1ccccc1CC(=O)Nc1ccc(Oc2cccc(Cl)c2)c(S(N)(=O)=O)c1` [Example 211, N-[4-(3-Chlorophenoxy)-3-sulfamoylphenyl]-2-[2-(2-methoxyethoxy)phenyl]acetamide] were 404 nM and 102%.
`COc1ccc(Oc2ccc(NC(=O)Cc3ccccc3Cl)cc2S(N)(=O)=O)cc1` [Example 023, 2-(2-Chlorophenyl)-N-[4-(4-methoxyphenoxy)-3-sulfamoylphenyl]acetamide]: the IC50 is 166 nM and the Emax is 73%.
Regarding `COCCN(C)C(=O)c1ccccc1CC(=O)Nc1ccc(Oc2cccc(Cl)c2)c(S(N)(=O)=O)c1` [Example 197, 2-(2-{[4-(3-Chlorophenoxy)-3-sulfamoylphenyl]amino}-2-oxoethyl)-N-(2-methoxyethyl)-N-methylbenzamide], the IC50 was 4120 nM and the Emax amounted to 68%.
Taken in the same sequence, the figures for `NS(=O)(=O)c1cc(NC(=O)Cc2ccccc2)ccc1Oc1ccc(F)cc1F` [Example 247, N-[4-(2,4-Difluorophenoxy)-3-sulfamoylphenyl]-2-phenylacetamide] were 1110 nM and 59%.
In the case of `NS(=O)(=O)c1cc(NC(=O)Cc2ccccc2)ccc1Oc1ccccc1Cl` [Example 076, N-[4-(2-Chlorophenoxy)-3-sulfamoylphenyl]-2-phenylacetamide], the Emax was determined as 74%.
For `NS(=O)(=O)c1cc(NC(=O)Cc2ccccc2)ccc1Oc1ccc(OC(F)(F)F)cc1` [Example 252, 2-Phenyl-N-{3-sulfamoyl-4-[4-(trifluoromethoxy)phenoxy]phenyl}acetamide], the IC50 was 6460 nM and the Emax stood at 93%.
For the compound `NS(=O)(=O)c1cc(NC(=O)Cc2ccccc2Cl)ccc1Oc1cccc(N2CCCCC2)c1` [Example 049, 2-(2-Chlorophenyl)-N-{4-[3-(piperidin-1-yl)phenoxy]-3-sulfamoylphenyl}acetamide], the IC50 came to 773 nM and the Emax came out at 92%.
As for `NS(=O)(=O)c1cc(NC(=O)Cc2ccc(Cl)cn2)ccc1Oc1cccc(Cl)c1` [Example 209, N-[4-(3-Chlorophenoxy)-3-sulfamoylphenyl]-2-(5-chloropyridin-2-yl)acetamide], the IC50 is 742 nM and the Emax was 64%.
Consider `COCCNC(=O)c1cccc(CC(=O)Nc2ccc(Oc3cccc(Cl)c3)c(S(N)(=O)=O)c2)c1` [Example 201, 3-(2-{[4-(3-Chlorophenoxy)-3-sulfamoylphenyl]amino}-2-oxoethyl)-N-(2-methoxyethyl)benzamide], for which the IC50 is 3300 nM and the Emax amounted to 73%.
With `NS(=O)(=O)c1cc(NC(=O)Cc2ccccc2Cl)ccc1OC1CCC1` [Example 205, 2-(2-Chlorophenyl)-N-[4-(cyclobutyloxy)-3-sulfamoylphenyl]acetamide], the IC50 was 396 nM and the Emax was determined as 74%.
Regarding `Cc1cc(Cl)c(CC(=O)Nc2ccc(Oc3cccc(Cl)c3)c(S(N)(=O)=O)c2)c(Cl)c1` [Example 126, N-[4-(3-Chlorophenoxy)-3-sulfamoylphenyl]-2-(2,6-dichloro-4-methylphenyl)acetamide], the IC50 came to 467 nM and the Emax is 81%.
The matching figures for `NS(=O)(=O)c1cc(NC(=O)Cc2c(Cl)ccc(Cl)c2Cl)ccc1Oc1cccc(Cl)c1` [Example 125, N-[4-(3-Chlorophenoxy)-3-sulfamoylphenyl]-2-(2,3,6-trichlorophenyl)acetamide]: 506 nM and 97%.
On to `CNC(=O)c1cccc(CC(=O)Nc2ccc(Oc3cccc(Cl)c3)c(S(N)(=O)=O)c2)c1` [Example 203, 3-(2-{[4-(3-Chlorophenoxy)-3-sulfamoylphenyl]amino}-2-oxoethyl)-N-methylbenzamide], for which the IC50 was found to be 1350 nM and the Emax was 69%.
Turning to `NS(=O)(=O)c1cc(NC(=O)Cc2ccccc2)cc(F)c1Oc1cccc(Cl)c1` [Example 170, N-[4-(3-Chlorophenoxy)-3-fluoro-5-sulfamoylphenyl]-2-phenylacetamide], the IC50 was above 16000 nM and the Emax amounted to 36%.
`NS(=O)(=O)c1cc(NC(=O)Cc2ccccc2Cl)ccc1Oc1cnc(C(F)(F)F)nc1` [Example 056, 2-(2-Chlorophenyl)-N-(3-sulfamoyl-4-{[2-(trifluoromethyl)pyrimidin-5-yl]oxy}phenyl)acetamide]: the IC50 was above 50000 nM and the Emax stood at 15%.
